We go through 1 compound from paper PMC13371181, “A paracrine-to-autocrine shunt of GREM1 fuels colorectal cancer metastasis via ACVR1C” (Molecular Cancer, 2026).

Molecules are shown by their SMILES.

Assay [1] deals with HCT116 cells. Kind of assay: Subcutaneous transplantation of GREM1-CM-pretreated HCT116 cells in nude mice. The format is in vivo, human cells in nude mice. Conditions: SB505124 10 mg/kg i.p. every other day. As for the experimental part: For cecum-to-liver metastasis model, 1 × 10^6 MC38-luc cells were resuspended in 50 µL of PBS and injected into the cecum of GD mice or control mice (Grem1-CreER^T2/Rosa-LSL-DTA mice) (n = 6 mice in each group); 5 × 10^6 HCT116-luc cells transduced with lentivirus carrying a pLV or pLV-GREM1 were injected into the cecum of NOG mice (n = 5 mice in each group). SB505124 was administered via intraperitoneal injection at a dose of 10 mg/kg once every other day. The metastases were examined every 5 days post injection using an IVIS Lumina Imaging System. Mice were euthanized between 2 and 6 weeks after injection. […] Mice were euthanized 4 weeks after injection. The tumor tissues were collected for further evaluation.
Figure S8. SB505124 inhibits GREM1-CM-induced EMT and metastasis of CRC in vivo. […] D, RT–qPCR analysis of epithelial marker CDH1 and mesenchymal markers CTNNB1, SNAI1, ZEB1 in subcutaneous tumor tissues from the indicated treatment groups. n = 3 independent experiments. E-G, Representative IF images (E) and quantification (F, G) of E-CAD (green), SNAIL (red), and DAPI (blue) staining in tumors from the indicated groups. […] H, I, Representative IVIS images (H) and quantification (I) of NOG mice that were injected with HCT116-luc cells in the cecum wall and treated with either SB505124 or vehicle via abdominal injection. Liver metastases were imaged and quantified using the IVIS Lumina Imaging System (n = 5 mice per group). For B–D, F, G and I, data are presented as mean ± s.e.m. P values were calculated using one-way ANOVA with Bonferroni multiple-comparison test (B–D, F, and G) or two-tailed Student’s t-test (I).

Assay [2] has as its system ACVR1C–SMAD2/3 pathway in HCT116 and SW480 cells. Description: Immunoblotting p-SMAD2/3 (ACVR1C pathway). The format is cell-based, human. To be noted: HCT116 and SW480 cells, immunoblotting; GREM1-CM + GREM1 BAb or + SB505124 (1 µM). As for the experimental part:
(§1) To investigate the effect of secreted GREM1 on CRC cells, an in vitro GREM1 secretion system was established using HEK293 cells. Stably GREM1-expressing cells (pcDNA3.1-GREM1) and empty-vector transfected cells (pcDNA3.1) were cultured in DMEM/F12 medium with 10% FBS until 40% confluence. After complete removal of the normal culture medium, HEK293-GREM1 and HEK293-Vec cells were continuously cultured in DMEM/F12 medium without FBS for 5 days before medium collection. GREM1 or Vector conditioned medium (GREM1-CM/Vec-CM) was then centrifuged at 1000 rpm for 30 min and the supernatant was collected for further study.
(§2) Protein was extracted from the cells with RIPA buffer (Beyotime, P0018) or NP40 lysis buffer (Beyotime, P0013F) and separated by SDS-PAGE, and transferred to polyvinylidene difluoride membranes. […] Band intensity was quantified using Fiji (ImageJ) by grayscale analysis.

The subject of assay [3] is type I TGFβ/Activin receptors. Conditions: SB505124; cited from earlier work. As for the experimental part:
Fig. 3 Secretory GREM1 binding of ACVR1C induces EMT via SMAD2/3 pathway. A, RNA sequencing was performed on HCT116 cells treated with GREM1 conditioned medium (GREM1-CM) or vector control conditioned medium (Vec-CM), followed by GSEA of the C2 gene sets. NES, normalized enrichment score; all P values equal to 0. B, Activation levels of the ACVR1C pathway markers (p-SMAD2/3 and SMAD2/3), as well as expression of the epithelial marker (E-CAD) and the mesenchymal markers (SNAIL, ZEB1, and β-CAT) were compared by immunoblotting analysis in SW480 and HCT116 cells treated with Vec-CM, GREM1-CM, GRE ...

Assay [4] concerns HCT116 and SW480 cells. Kind of assay: EMT markers by immunoblotting and RT–qPCR. The format is cell-based, human. To be noted: GREM1-CM + GREM1 BAb, + SB505124 (1 µM) or + different concentrations of sb4 (sb4: immunoblotting). As for the experimental part:
as §1, §2
Total RNA was extracted using Trizol reagent (Invitrogen, 15596026). […] The SYBR Green Premix Pro Taq HS qPCR Kit (Accurate Biology, AG11701) was then used to quantify mRNA expression according to the manufacturer’s instructions. All results were calculated using the 2^−ΔΔCt method. […]

As for `Cc1cccc(-c2[nH]c(C(C)(C)C)nc2-c2ccc3c(c2)OCO3)n1` [SB505124], the “E-CAD and SNAIL expression in subcutaneous tumors” value in assay [1] (IF, n = 5 mice per group) was “restored E-CAD expression and suppressed SNAIL expression”. The “subcutaneous tumor progression and EMT” value in assay [1] (nude mice, GREM1-CM-pretreated HCT116, n = 6 mice per group) is “suppressed tumor progression and EMT”. The “GREM1-CM-induced p-SMAD2/3, effect of inhibitor” value in assay [2] was “significantly blocked GREM1-CM–induced p-SMAD2/3 activation and EMT”. Further, in assay [3], the “selectivity of SMAD2/3 phosphorylation block” value is given as “selectively blocks the type I TGFβ/Activin receptors-mediated SMAD2/3 phosphorylation”. Besides, the “GREM1-CM-induced EMT, effect of treatment” value in assay [4] was “significantly blocked GREM1-CM–induced p-SMAD2/3 activation and EMT”.
